Measurements as given in patent US8476298B2 (Exelixis, Inc., priority 2003, dated 2013).

Legend:
[1] = biological target: T1, Flt-3 (baculovirus expressed human Flt-3 kinase domain R571-S993) (Homo sapiens, UniProt P36888); experiment: biochemical; conditions: read-out: flt3 IC50;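 note: Luciferase-coupled chemiluminescent kinase assay, activity read as percent ATP left after a 3 h reaction at room temperature, ATP near KM, 10-point dose-response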
T1 construct: human Flt-3 kinase domain R571-S993; host or cells: baculovirus expression
T1 sequence (P36888 571-993): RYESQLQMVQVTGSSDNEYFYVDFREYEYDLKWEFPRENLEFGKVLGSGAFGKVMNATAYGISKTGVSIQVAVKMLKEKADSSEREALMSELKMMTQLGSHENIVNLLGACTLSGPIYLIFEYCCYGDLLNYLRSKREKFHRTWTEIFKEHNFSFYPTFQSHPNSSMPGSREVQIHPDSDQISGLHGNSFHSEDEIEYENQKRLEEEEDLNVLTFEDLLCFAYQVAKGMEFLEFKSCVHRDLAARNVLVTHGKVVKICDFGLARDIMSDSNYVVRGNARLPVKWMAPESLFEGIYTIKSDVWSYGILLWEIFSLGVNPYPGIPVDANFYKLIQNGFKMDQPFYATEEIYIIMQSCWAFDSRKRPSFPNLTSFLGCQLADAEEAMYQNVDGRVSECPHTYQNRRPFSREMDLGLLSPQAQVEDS

[2] = biological target: T2, Flt-4 (baculovirus expressed human Flt-4 kinase domain D725-R1298) (Homo sapiens, UniProt P35916); experiment: flt-4 Alphascreen Tyrosine Kinase assay; format: biochemical; conditions: read-out: flt4 IC50;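 note: AlphaScreen chemiluminescence read-out of biotinylated poly(Glu,Tyr) 4:1 phosphorylation via streptavidin donor and PY100 anti-phosphotyrosine acceptor beads, ATP near KM, 1 hr kinase reaction, 10-point dose-response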
T2 construct: human Flt-4 kinase domain D725-R1298; host or cells: baculovirus expression
T2 sequence (P35916 725-1298 isoform P35916-1): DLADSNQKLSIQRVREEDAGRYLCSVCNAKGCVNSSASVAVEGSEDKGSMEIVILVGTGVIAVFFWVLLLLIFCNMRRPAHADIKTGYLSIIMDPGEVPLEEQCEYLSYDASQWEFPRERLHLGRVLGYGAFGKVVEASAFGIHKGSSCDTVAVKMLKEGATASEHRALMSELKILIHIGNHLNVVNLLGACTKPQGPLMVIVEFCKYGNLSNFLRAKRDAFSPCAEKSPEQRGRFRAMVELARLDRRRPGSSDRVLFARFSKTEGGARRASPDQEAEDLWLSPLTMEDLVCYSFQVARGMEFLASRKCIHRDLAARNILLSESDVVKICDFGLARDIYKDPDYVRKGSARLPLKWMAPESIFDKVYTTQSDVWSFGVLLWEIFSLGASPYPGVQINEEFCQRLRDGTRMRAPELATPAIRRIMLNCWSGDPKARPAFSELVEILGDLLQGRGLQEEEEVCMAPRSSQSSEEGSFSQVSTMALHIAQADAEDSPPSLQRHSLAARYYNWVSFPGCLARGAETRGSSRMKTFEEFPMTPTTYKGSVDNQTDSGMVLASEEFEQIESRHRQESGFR

[3] = biological target: T3, c-Met (baculovirus expressed human c-Met kinase domain P948-S1343) (Homo sapiens, UniProt P08581); experiment: c-Met Luciferase-Coupled Chemiluminescent Kinase assay (LCCA); format: biochemical;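 note: kinase activity read as percent ATP left after reaction, by luciferase-luciferin chemiluminescence, with 1 µM ATP and 1 µM poly-EY substrate, 2 h at ambient temperature, 10-point dose-response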
T3 construct: human c-Met kinase domain P948-S1343; host or cells: baculovirus expression
T3 sequence (P08581 1011-1343 limits assumed): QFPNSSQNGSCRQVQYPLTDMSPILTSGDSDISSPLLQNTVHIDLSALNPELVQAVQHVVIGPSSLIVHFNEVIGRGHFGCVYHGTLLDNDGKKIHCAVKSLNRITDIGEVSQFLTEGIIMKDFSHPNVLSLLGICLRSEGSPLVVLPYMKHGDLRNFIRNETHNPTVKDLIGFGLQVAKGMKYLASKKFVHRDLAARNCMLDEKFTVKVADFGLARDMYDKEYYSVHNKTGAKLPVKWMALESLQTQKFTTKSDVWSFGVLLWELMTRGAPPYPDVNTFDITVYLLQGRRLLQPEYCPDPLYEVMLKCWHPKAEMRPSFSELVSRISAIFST

[4] = biological target: T4, KDR (baculovirus expressed human KDR kinase domain D807-V1356) (Homo sapiens, UniProt P35968); experiment: biochemical;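 note: Luciferase-coupled chemiluminescent kinase assay, activity read as percent ATP left after 4 h reaction at ambient temperature, ATP near KM, 10-point dose-response in 384-well plates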
T4 construct: human KDR kinase domain D807-V1356; host or cells: baculovirus expression
T4 sequence (P35968 807-1356): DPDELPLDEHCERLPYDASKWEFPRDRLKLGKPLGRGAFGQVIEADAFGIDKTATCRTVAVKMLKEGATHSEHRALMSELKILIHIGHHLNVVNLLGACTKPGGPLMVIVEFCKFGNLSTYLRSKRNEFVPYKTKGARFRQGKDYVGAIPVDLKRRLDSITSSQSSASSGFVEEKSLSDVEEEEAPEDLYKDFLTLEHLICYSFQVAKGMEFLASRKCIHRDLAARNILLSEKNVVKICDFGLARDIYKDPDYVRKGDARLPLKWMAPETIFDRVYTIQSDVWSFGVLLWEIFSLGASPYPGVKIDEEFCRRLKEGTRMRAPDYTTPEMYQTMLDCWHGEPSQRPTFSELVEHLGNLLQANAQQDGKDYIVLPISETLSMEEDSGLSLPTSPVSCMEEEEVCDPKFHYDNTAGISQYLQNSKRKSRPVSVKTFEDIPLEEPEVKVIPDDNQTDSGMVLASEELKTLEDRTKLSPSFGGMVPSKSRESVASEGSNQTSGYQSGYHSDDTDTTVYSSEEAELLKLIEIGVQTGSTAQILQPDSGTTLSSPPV

[5] = biological target: c-Kit kinase (Homo sapiens, UniProt P10721); experiment: c-Kit AlphaScreen kinase assay; format: biochemical;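 note: c-Kit kinase phosphorylating biotinylated poly(Glu,Tyr), ATP near its KM, 1 h reaction at ambient temperature, AlphaScreen chemiluminescence with streptavidin donor and anti-phosphotyrosine acceptor beads, 10-point inhibitor titration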
Chain of c-Kit kinase (P10721 26-976): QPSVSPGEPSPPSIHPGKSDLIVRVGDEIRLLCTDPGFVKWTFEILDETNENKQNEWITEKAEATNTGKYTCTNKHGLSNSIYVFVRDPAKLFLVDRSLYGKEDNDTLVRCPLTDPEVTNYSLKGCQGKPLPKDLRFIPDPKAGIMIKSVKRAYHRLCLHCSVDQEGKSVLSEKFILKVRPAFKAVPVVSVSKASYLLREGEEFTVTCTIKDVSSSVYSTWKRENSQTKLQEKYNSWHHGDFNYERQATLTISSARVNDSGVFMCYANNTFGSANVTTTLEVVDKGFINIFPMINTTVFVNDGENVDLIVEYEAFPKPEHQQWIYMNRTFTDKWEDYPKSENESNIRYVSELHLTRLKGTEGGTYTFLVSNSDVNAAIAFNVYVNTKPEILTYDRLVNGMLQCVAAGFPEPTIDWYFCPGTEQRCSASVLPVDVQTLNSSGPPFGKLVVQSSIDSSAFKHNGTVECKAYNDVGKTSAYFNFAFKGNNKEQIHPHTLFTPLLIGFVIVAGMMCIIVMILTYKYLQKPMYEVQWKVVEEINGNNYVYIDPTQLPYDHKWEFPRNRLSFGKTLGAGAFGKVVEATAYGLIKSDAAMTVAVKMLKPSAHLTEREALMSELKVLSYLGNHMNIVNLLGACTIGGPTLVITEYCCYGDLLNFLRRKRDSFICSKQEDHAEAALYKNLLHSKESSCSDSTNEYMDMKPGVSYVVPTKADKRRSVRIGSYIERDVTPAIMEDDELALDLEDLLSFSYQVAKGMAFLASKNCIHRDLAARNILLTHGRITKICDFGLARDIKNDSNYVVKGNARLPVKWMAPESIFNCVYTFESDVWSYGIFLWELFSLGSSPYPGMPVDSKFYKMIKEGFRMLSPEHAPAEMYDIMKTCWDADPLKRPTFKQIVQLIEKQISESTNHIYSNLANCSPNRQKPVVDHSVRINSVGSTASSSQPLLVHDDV

Row | IC50 [1] | IC50 [2] | IC50 [3] | IC50 [4] | IC50 [5] | SMILES
1 | < 50 nM | 50 to 500 nM | < 50 nM | < 50 nM | 50 to 500 nM | COc1cc2c(Oc3ccc(NC(=O)C(=O)NC(C)c4ccc(F)cc4)cc3F)ccnc2cc1OCC1CCNCC1 (stereo not drawn) [Example 283, N-[3-fluoro-4-({6-(methyloxy)-7-[(piperidin-4-ylmethyl)oxy]quinolin-4-yl}oxy)phenyl]-N′-[1-(4-fluorophenyl)ethyl]ethanediamide]
2 | 50 to 500 nM | 500 to 5000 nM | < 50 nM | 500 to 5000 nM | 50 to 500 nM | COc1cc2c(Oc3ccc(NC(=O)C(=O)N[C@@H](Cc4ccccc4)C(=O)N4CCCC4)cc3F)ccnc2cc1OCC1CCNCC1 [Example 284, N-[3-fluoro-4-({6-(methyloxy)-7-[(piperidin-4-ylmethyl)oxy]quinolin-4-yl}oxy)phenyl]-N′-[(1S)-2-oxo-1-(phenylmethyl)-2-pyrrolidin-1-ylethyl]ethanediamide]
3 | 50 to 500 nM | 50 to 500 nM | < 50 nM | 50 to 500 nM | 500 to 5000 nM | CCN(C)C(=O)C(=O)Nc1ccc(Oc2ccnc3cc(OCC4CCNCC4)c(OC)cc23)c(F)c1 [Example 300, N-ethyl-N′-[3-fluoro-4-({6-(methyloxy)-7-[(piperidin-4-ylmethyl)oxy]quinolin-4-yl}oxy)phenyl]-N-methylethanediamide]

The remaining lines, values behind:

Row | SMILES | IC50 [1] | IC50 [2] | IC50 [3] | IC50 [4] | IC50 [5]
4 | COc1cc2nccc(Oc3cc(Cl)c(NC(=O)C4(C(=O)Nc5ccc(F)cc5)CC4)cc3F)c2cc1OC [Example 337, N-(4-{[6,7-bis(methyloxy)quinolin-4-yl]oxy}-2-chloro-5-fluorophenyl)-N′-(4-fluorophenyl)cyclopropane-1,1-dicarboxamide] | 500 to 5000 nM | 500 to 5000 nM | < 50 nM | 50 to 500 nM | 50 to 500 nM
5 | COc1cc2c(Oc3ccc(NC(=O)C4(C(=O)Nc5ccc(F)cc5)CC4)c(C)c3)ccnc2cc1OCCCN1CCOCC1 [Example 331, N-(4-fluorophenyl)-N′-[2-methyl-4-({6-(methyloxy)-7-[(3-morpholin-4-ylpropyl)oxy]quinolin-4-yl}oxy)phenyl]cyclopropane-1,1-dicarboxamide] | 50 to 500 nM | < 50 nM | < 50 nM | < 50 nM | < 50 nM
6 | COc1cc2nccc(Oc3ncc(NC(=O)C4(C(=O)NCc5ccccc5)CC4)cc3Cl)c2cc1OC [Example 301, N-(6-{[6,7-bis(methyloxy)quinolin-4-yl]oxy}-5-chloropyridin-3-yl)-N′-(phenylmethyl)cyclopropane-1,1-dicarboxamide] | 50 to 500 nM | 50 to 500 nM | < 50 nM | 500 to 5000 nM | 50 to 500 nM
7 | COc1cc2nccc(Oc3cc(C)c(NC(=O)C4(C(=O)Nc5ccc(F)cc5)CC4)cc3F)c2cc1OC [Example 328, N-(4-{[6,7-bis(methyloxy)quinolin-4-yl]oxy}-5-fluoro-2-methylphenyl)-N′-(4-fluorophenyl)cyclopropane-1,1-dicarboxamide] | 500 to 5000 nM | 500 to 5000 nM | < 50 nM | 50 to 500 nM | 50 to 500 nM
8 | COc1cc2c(Oc3ccc(NC(=O)C4(C(=O)Nc5ccc(F)cc5)CCC4)cc3F)ccnc2cc1OCCCN1CCCCC1 [Example 314, N-[3-fluoro-4-({6-(methyloxy)-7-[(3-piperidin-1-ylpropyl)oxy]quinolin-4-yl}oxy)phenyl]-N′-(4-fluorophenyl)cyclobutane-1,1-dicarboxamide] | 50 to 500 nM | < 50 nM | < 50 nM | < 50 nM | < 50 nM
9 | COc1cc2c(Oc3ccc(NC(=O)C4(C(=O)Nc5ccc(F)cc5)CC4)cc3F)ncnc2cc1OCCCN1CCOCC1 [Example 315, N-[3-fluoro-4-({6-(methyloxy)-7-[(3-morpholin-4-ylpropyl)oxy]quinazolin-4-yl}oxy)phenyl]-N′-(4-fluorophenyl)cyclopropane-1,1-dicarboxamide] | < 50 nM | < 50 nM | < 50 nM | < 50 nM | < 50 nM
